Experimental data: patent US11497819B2, “PSMA ligands for imaging and endoradiotherapy” (priority 2017, dated 2022)

Tests used:
LNCaP-tumor xenograft = assay: Biodistribution in LNCaP-tumor xenograft bearing CB-17 SCID mice; assay type: in vivo; details: mouse, in vivo
Protocol: All animal experiments were carried out in accordance with the general animal welfare regulations in Germany (Deutsches Tierschutzgesetz, approval #55.2-1-54-2532-71-13). For the tumor model, LNCaP cells (approx. 10^7 cells) were suspended in serum-free DMEM-F12 medium and Matrigel (1/1; v/v) (BD Biosciences, Germany) and inoculated onto the right shoulder of male, 6 to 8 weeks old CB-17 SCID mice (Charles River Laboratories, Sulzfeld, Germany). Animals were used after the tumor size reached 4 to 8 mm in diameter for experiments.

[1] = Lipophilicity, logP in n-octanol/PBS of radiolabeled PSMA inhibitors; assay type: physicochemical; details: pH 7.4
Protocol: The radiolabeled PSMA inhibitor (0.5 to 1.0 MBq) dissolved in PBS (500 μL, pH=7.4), was added to n-octanol (500 μL) in a reaction vial (1.5 mL), which was rigorously vortexed for 3 min (n=6). For quantitative phase separation, the mixture was centrifuged at 6,000 g for 5 min (Biofuge 15, Heraus Sepatech, Osterode, Germany). The activity from samples of each phase (100 μL) were measured in a γ-counter to obtain the log P(o/w) value.

HSA = target: T1, HSA (Homo sapiens, UniProt P02768); assay: HSA binding on Chiralpak HSA column; assay type: in vitro ADME; details: human, 0.5 mg/mL
T1 construct: purchased Daicel Chemical Industries / Chiral Technologies Europe (Illkirch, France)
Protocol: HSA binding experiments were performed as previously described. […] For each run, 10 μL of the solution containing the inhibitor was injected into the RP-HPLC system and the retention time measured. […] Non-linear regression was established with OriginPro 2016G.

LNCaP cells = assay: Internalization into LNCaP cells, relative cellular uptake to ([^125I]I-BA)KuE; assay type: cell-based; details: c = 1.0 nM ^177Lu-labeled inhibitor, 37° C., 60 min, corrected for non-specific binding (10 μM 2-PMPA), mean ± SD (n = 3)
Protocol: PSMA-positive LNCAP cells (300265; Cell Lines Service GmbH) were cultivated in Dulbecco modified Eagle medium/Nutrition Mixture F-12 (1/1) (DMEM-F12, Biochrom) supplemented with fetal calf serum (FCS) (10%, Biochrom) and kept at 37° C. in a humidified CO2 atmosphere (5%). One day (24 h±2 h) prior to all experiments with LNCaP cells, the cultivated cells were harvested using a mixture of trypsin/ethylendiaminetetraacetate (0.05%/0.02%) and PBS and centrifuged. After centrifugation, the supernatant was disposed and the cell pellet resuspended in culture medium. Afterwards, cells were counted with a hemocytometer (Neubauer) and seeded in 24-well plates.
Subsequent to the removal of the culture medium, the cells were washed once with DMEM-F12-solution (500 μL, 5% BSA) and left to equilibrate for at least 15 min at 37° C. in DMEM-F12-solution (200 μL, 5% BSA). Afterwards, each well was treated with either DMEM-F12-solution (25 μL, 5% BSA) or 2-PMPA-solution (25 μL, 100 μm) for blockade. […] The experiment was terminated by placing the 24-well plate on ice for 3 min and the consecutive removal of the medium. Each well was rinsed with HBSS (250 μL) and the fractions from these first two steps combined, representing the amount of free radioligand. Removal of surface bound activity was accomplished by incubation of the cells with ice-cold 2-PMPA-solution (250 μL, 10 μm in PBS) for 5 min and subsequent rinsing with ice-cold PBS (250 μL). The internalized activity was determined through incubation of the cells in NaOH (250 μL, 1.0 m) and the combination with the fraction of the subsequent washing step with again NaOH (250 μL, 1.0 m). Each experiment (control and blockade) was performed in triplicate for each time point. Free, surface bound and internalized activity was quantified in a γ-counter.

T1 sequence (P02768 25-609): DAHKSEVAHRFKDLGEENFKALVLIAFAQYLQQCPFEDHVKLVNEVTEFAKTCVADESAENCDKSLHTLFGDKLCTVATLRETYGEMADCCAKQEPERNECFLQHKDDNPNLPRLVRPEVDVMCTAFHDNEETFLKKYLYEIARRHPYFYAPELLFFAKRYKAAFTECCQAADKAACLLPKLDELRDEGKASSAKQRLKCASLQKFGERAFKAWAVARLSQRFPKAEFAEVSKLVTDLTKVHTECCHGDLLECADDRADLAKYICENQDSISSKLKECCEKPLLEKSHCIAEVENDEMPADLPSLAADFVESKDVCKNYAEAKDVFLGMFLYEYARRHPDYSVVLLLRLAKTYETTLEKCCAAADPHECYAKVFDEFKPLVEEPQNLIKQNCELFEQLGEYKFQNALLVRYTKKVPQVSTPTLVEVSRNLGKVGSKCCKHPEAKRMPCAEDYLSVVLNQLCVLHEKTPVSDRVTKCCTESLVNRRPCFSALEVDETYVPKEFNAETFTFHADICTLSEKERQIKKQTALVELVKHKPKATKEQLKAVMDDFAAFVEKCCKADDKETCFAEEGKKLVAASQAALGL

Row | SMILES | adrenal g. (LNCaP-tumor xenograft; male, CB-17 SCID, 24 h) [% ID/g] | blood (LNCaP-tumor xenograft; male, CB-17 SCID, 24 h) [% ID/g] | bone (LNCaP-tumor xenograft; male, CB-17 SCID, 24 h) [% ID/g] | brain (LNCaP-tumor xenograft; male, CB-17 SCID, 24 h) [% ID/g] | heart (LNCaP-tumor xenograft; male, CB-17 SCID, 24 h) [% ID/g] | intestine (LNCaP-tumor xenograft; male, CB-17 SCID, 24 h) [% ID/g] | liver (LNCaP-tumor xenograft; male, CB-17 SCID, 24 h) [% ID/g] | lung (LNCaP-tumor xenograft; male, CB-17 SCID, 24 h) [% ID/g] | muscle (LNCaP-tumor xenograft; male, CB-17 SCID, 24 h) [% ID/g] | pancreas (LNCaP-tumor xenograft; male, CB-17 SCID, 24 h) [% ID/g] | spleen (LNCaP-tumor xenograft; male, CB-17 SCID, 24 h) [% ID/g] | stomach (LNCaP-tumor xenograft; male, CB-17 SCID, 24 h) [% ID/g] | t/blood (LNCaP-tumor xenograft; male, CB-17 SCID, 24 h) | t/kidney (LNCaP-tumor xenograft; male, CB-17 SCID, 24 h) | t/liver (LNCaP-tumor xenograft; male, CB-17 SCID, 24 h) | t/muscle (LNCaP-tumor xenograft; male, CB-17 SCID, 24 h) | logP [1] | HSA (albumin binding) (HSA) [%] | also measured
1 | Nc1ccc(C[C@H](NC(=O)CCC(C(=O)O)N2CCN(CC(=O)O)CCN(CC(=O)O)CCN(CC(=O)O)CC2)C(=O)N[C@H](Cc2ccc(O)cc2)C(=O)N[C@H](Cc2ccc3ccccc3c2)C(=O)N[C@H](CCCCNC(=O)[C@@H](CC(=O)NCCC[C@@H](NC(=O)CC[C@H](NC(=O)N[C@@H](CCC(=O)O)C(=O)O)C(=O)O)C(=O)O)NC(=O)c2cc(C(=O)O)cc(C(=O)O)c2)C(=O)O)cc1 (stereo partly shown) [PSMA-62, DOTAGA-F(4-NH2)y-2-nal-k(d[N^5-orn-C^4-EuE]-TMA)] | 0.04 ± 0.02 | 0.004 ± 0.001 | 0.04 ± 0.006 | 0.01 ± 0.006 | 0.02 ± 0.01 | 0.03 ± 0.02 | 0.17 ± 0.07 | 0.03 ± 0.02 | 0.007 ± 0.001 | 0.01 ± 0.002 | 0.09 ± 0.06 | 0.03 ± 0.01 | 1925.0 | 1.5 | 45.3 | 1100.0 | -4.12 ± 0.05 | >91.0 | adrenal gland (LNCaP-tumor xenograft; male, CB-17 SCID, 1 h): 1.92 ± 0.80 % ID/g; blood (LNCaP-tumor xenograft; male, CB-17 SCID, 1 h): 0.52 ± 0.03 % ID/g; bone (LNCaP-tumor xenograft; male, CB-17 SCID, 1 h): 0.30 ± 0.08 % ID/g; brain (LNCaP-tumor xenograft; male, CB-17 SCID, 1 h): 0.03 ± 0.01 % ID/g; heart (LNCaP-tumor xenograft; male, CB-17 SCID, 1 h): 0.58 ± 0.06 % ID/g; intestine (LNCaP-tumor xenograft; male, CB-17 SCID, 1 h): 0.49 ± 0.25 % ID/g; liver (LNCaP-tumor xenograft; male, CB-17 SCID, 1 h): 0.37 ± 0.04 % ID/g; lung (LNCaP-tumor xenograft; male, CB-17 SCID, 1 h): 0.87 ± 0.11 % ID/g; muscle (LNCaP-tumor xenograft; male, CB-17 SCID, 1 h): 0.12 ± 0.03 % ID/g; pancreas (LNCaP-tumor xenograft; male, CB-17 SCID, 1 h): 0.18 ± 0.05 % ID/g; spleen (LNCaP-tumor xenograft; male, CB-17 SCID, 1 h): 4.62 ± 1.81 % ID/g; stomach (LNCaP-tumor xenograft; male, CB-17 SCID, 1 h): 0.51 ± 0.2 % ID/g; tumor (LNCaP-tumor xenograft; male, CB-17 SCID, 1 h): 8.00 ± 0.78 % ID/g; tumor/blood (LNCaP-tumor xenograft; male, CB-17 SCID, 1 h): 15.4; tumor/kidney (LNCaP-tumor xenograft; male, CB-17 SCID, 1 h): 0.08; tumor/muscle (LNCaP-tumor xenograft; male, CB-17 SCID, 1 h): 66.7; tumor (LNCaP-tumor xenograft; male, CB-17 SCID, 24 h): 7.70 ± 1.35 % ID/g; Internalization (LNCaP cells; listed as [^177Lu]PSMA-62): 343.9%; Internalization (LNCaP cells; listed as [^nat/177Lu]PSMA-62): 343.9 ± 6.0%
2 | O=C(O)CC[C@H](NC(=O)N[C@@H](CCC(=O)NC(CCCNC(=O)C[C@@H](NC(=O)c1cc(C(=O)O)cc(C(=O)O)c1)C(=O)NCCCC[C@@H](NC(=O)[C@@H](Cc1ccc2ccccc2c1)NC(=O)[C@@H](Cc1ccc(O)cc1)NC(=O)[C@H](Cc1ccc2ccccc2c1)NC(=O)CCC(C(=O)O)N1CCN(CC(=O)O)CCN(CC(=O)O)CCN(CC(=O)O)CC1)C(=O)O)C(=O)O)C(=O)O)C(=O)O (stereo partly shown) [PSMA-71, DOTAGA-2-Nal-y-2-nal-k(d[N^5-orn-C^4-EuE]-TMA)] | 0.32 ± 0.15 | 0.008 ± 0.001 | 0.04 ± 0.02 | 0.01 ± 0.002 | 0.07 ± 0.01 | 0.27 ± 015 | 0.38 ± 0.14 | 0.05 ± 0.01 | 0.01 ± 0.001 | 0.15 ± 0.15 | 0.27 ± 0.15 | 0.20 ± 0.10 | 1786.3 | 0.4 | 37.6 | 1429.0 | -4.13 ± 0.09 | 98.2 | tumor (LNCaP-tumor xenograft): highest tumor uptake; Internalization (LNCaP cells; listed as [^177Lu]PSMA-71): 206.8±1.7%; Internalization (LNCaP cells; listed as [^nat/177Lu]PSMA-71): 206.8 ± 1.7%
